In PubChem BioAssay (NCI):
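Dose response: 5 concentrations. Exposure: 48 h. Format: 96-well plates. Endpoint: linear interpolation; highest concentration if not reached. GI50 marks 50% less growth. TGI: concentration producing complete growth inhibition.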

Tests used:
Assay in all cases: inhibition of tumour cell growth, NCI panel, 48 h
[1] = tested on: K-562 leukemia
[2] = tested on: MALME-3M melanoma
[3] = tested on: NCI-H23 lung
[4] = tested on: SK-MEL-28 melanoma
[5] = tested on: SR leukemia
[6] = tested on: UACC-62 melanoma
[7] = tested on: UO-31 renal
[8] = tested on: HS 578T breast
[9] = tested on: M14 melanoma
[10] = tested on: T-47D breast

| Structure (SMILES) | TGI [1] [µM] | TGI [2] [µM] | TGI [3] [µM] | TGI [4] [µM] | TGI [5] [µM] | TGI [6] [µM] | TGI [7] [µM] | GI50 [8] [µM] | TGI [8] [µM] | GI50 [1] [µM] | GI50 [9] [µM] | TGI [9] [µM] | GI50 [2] [µM] | GI50 [3] [µM] | GI50 [4] [µM] | GI50 [10] [µM] | TGI [10] [µM] | GI50 [6] [µM] | GI50 [7] [µM] | GI50 [5] [µM] |
| --- | --- | --- | --- | --- | --- | --- | --- | --- | --- | --- | --- | --- | --- | --- | --- | --- | --- | --- | --- | --- |
| O=c1cc2n(c(=O)[nH]1)C1OC(C(O)C1O)[C@H]2CCO (some centres undefined) | > 100 | > 100 | > 100 | > 100 | > 100 | > 100 | > 100 |  |  |  |  |  |  |  |  |  |  |  |  |  |
| C[As](C)Sc1ccnc(S[As](C)C)n1 |  | 11.3 | > 32 | 19.7 |  | 15.6 | 26.9 | 1.99 | 17.7 | 1.06 | 3.94 | > 44.9 | 1.66 | 6.79 | 2.67 | 22.9 | > 100 | 2.38 | 3.73 |  |
| O=C(CCc1nnc2s/c(=C\c3ccc4c(c3)OCO4)c(=O)n12)Nc1cc(Cl)ccc1Cl | > 100 | > 100 | > 100 | > 100 | > 100 | > 100 | > 100 |  |  |  |  | > 100 |  |  |  |  |  |  |  |  |
| O=C(c1ccccc1)c1ccc(Cl)c([N+](=O)[O-])c1 | 11.9 |  | 32.8 | 19 | 9.66 |  | 5.34 | 17.5 | 95.3 | 3.44 | 4.37 | 17.8 |  | 16.2 | 5.59 | 7.54 | 38.6 |  | 2.25 | 3.04 |
| Nc1nc(=O)n(C2CC(O)C(O)C(CO)O2)cc1F (centres undefined) | > 100 | > 100 | > 100 | > 100 |  | > 100 | > 100 |  |  |  |  | > 100 |  |  |  |  |  |  |  |  |
| CN(C)c1ccccc1CC(c1c[nH]c2ccccc12)c1c[nH]c2ccccc12 | 32.9 | 31.4 | 21.3 |  | 21.6 | 27.6 | 23.1 |  |  |  |  | 24 |  |  |  |  |  |  |  |  |
| O=C(CC1(O)C(=O)Nc2c(Cl)cccc21)c1ccccc1 (centres undefined) | > 100 | > 100 | > 100 | > 100 |  |  | > 100 |  |  |  |  | > 100 |  |  |  |  |  |  |  |  |
| O=C1C(c2ccc([N+](=O)[O-])cc2)=[N+]([O-])c2ccccc21 | > 100 | > 100 | 63.4 | 77.2 | 62.3 | 40.5 | 67 |  |  |  |  | > 100 |  |  |  |  |  |  |  |  |
| Cc1cc2cc(Cl)ccc2nc1C(=O)c1ccccc1 | > 100 | > 100 | > 100 | > 100 | > 100 | > 100 | > 100 |  |  |  |  | > 100 |  |  |  |  |  |  |  |  |
| COc1ccc(Nc2c3c4c(cccc4[nH]c2=O)C(=O)c2ccccc2-3)cc1 |  | 48.3 | > 38.9 | > 100 |  | > 100 | > 100 | 0.0238 | > 45.9 |  | < 0.0192 | > 100 | 0.0663 | < 0.0185 | 11 | 38.4 | > 100 | 0.031 | 0.319 |  |
| CC(C)(C)C(=O)OCOP(=O)(OCOC(=O)C(C)(C)C)C1CCCN(OC(=O)c2ccccc2)C1=O (centres undefined) | > 100 | 5.44 | 9.74 | 3.57 |  | 2.99 | 2.36 | 0.71 | 38.1 | 0.496 | 2.3 | 16.5 | 0.457 | 1.51 | 1.05 | 1.38 | 16.7 | 1.09 | 0.297 |  |
| COC(=O)CSc1ccccc1 | > 100 | 59.8 | > 100 |  |  | > 100 | > 100 |  |  |  |  | > 100 |  |  |  |  |  |  |  |  |
| CC1(C)Cc2cccc(OCC(O)CN3CCN(c4ccc(F)cc4)CC3)c2O1 (centres undefined) | > 50 |  | > 50 | > 50 | > 50 | > 50 | > 50 | 10.4 | 31.3 | 16.6 | 7.37 | 15.1 |  | 19.1 | 19.1 |  |  | 11.6 | 13.5 | 13.4 |
| O=c1c2cc(Br)ccc2[nH]c(=S)n1-c1ccc(Br)cc1 | > 100 | > 100 | > 100 | > 100 | > 100 |  | > 100 |  |  |  |  |  |  |  |  |  |  |  |  |  |
| CN(C)c1ccc(/C=C/C(=O)c2ccccc2)cc1Br | 75.7 | 43 | 40 | 30.5 |  | 32.3 | 33.3 |  |  |  |  | 27.3 |  |  |  |  |  |  |  |  |
| COc1ccc(C(=O)C(c2ccc(OC)cc2)C2C(=O)Oc3ccccc32)cc1 (centres undefined) | > 100 | > 100 | > 100 | > 100 | > 100 | > 100 | 51.1 |  |  | > 100 | > 100 | > 100 | > 100 | > 100 | > 100 |  |  | > 100 |  | > 100 |

| Structure (SMILES) | TGI [1] [µM] | TGI [2] [µM] | TGI [3] [µM] | TGI [4] [µM] | TGI [5] [µM] | TGI [6] [µM] | TGI [7] [µM] | GI50 [8] [µM] | TGI [8] [µM] | GI50 [1] [µM] | GI50 [9] [µM] | TGI [9] [µM] | GI50 [2] [µM] | GI50 [3] [µM] | GI50 [4] [µM] | GI50 [10] [µM] | TGI [10] [µM] | GI50 [6] [µM] | GI50 [7] [µM] | GI50 [5] [µM] |
| --- | --- | --- | --- | --- | --- | --- | --- | --- | --- | --- | --- | --- | --- | --- | --- | --- | --- | --- | --- | --- |
| C[N+](C)(C)CCC(=O)N1C/C(=C\c2ccccc2)C(=O)/C(=C/c2ccccc2)C1 | 6.3 | 30.4 | 23.3 | 15.4 |  | 10.3 | 33 |  | 21.2 |  |  | 7.54 |  |  |  |  | 4.41 |  |  |  |
| COc1ccc(CN2C(=O)C(Cc3cc(OC)c(OC)c(C)c3OC)N(C(=O)OC(C)C)C(=O)/C2=C/c2cc(OC)c(OC)c(C)c2OC)cc1 (centres undefined) | > 100 | > 100 | > 100 | > 100 | 89.8 | > 100 | > 100 |  |  |  |  | > 100 |  |  |  |  |  |  |  |  |
| COc1ccc(S(=O)(=O)N2CCN(C(=O)OCc3ccccc3)CC2C(=O)NO)cc1 (centres undefined) | > 25 | > 25 | > 25 | > 25 |  | > 25 | > 25 | > 25 | > 25 | 13.6 | > 25 | > 25 | > 25 | > 25 | > 25 | 12.1 | > 25 | > 25 | 17 |  |
| O=c1oc2c3ccc4ccccc4c3n(CCN3CCOCC3)c2c2ccccc12 |  | > 100 |  | > 100 | 58.3 | > 100 | > 100 |  |  |  |  | > 100 |  |  |  |  |  |  |  |  |
| COc1ccc2nc3cc(Cl)ccc3c(NCCC(=O)OCC(O)C(O)C(O[C@H](C)C(=O)NC(C)C(=O)NC(CCC(N)=O)C(=O)OCc3ccccc3)C(C=O)NC(C)=O)c2c1 (some centres undefined) | 68 | > 100 | 27.5 | 32.1 | 23.6 | 34 | 34.7 |  |  |  |  | 35.5 |  |  |  |  |  |  |  |  |
| O=C1OC(c2ccccc2)C2CC3CC4(CCC3CN12)OCCO4 (centres undefined) | > 100 |  | > 100 | > 100 | > 100 | > 100 | > 100 |  |  |  |  | > 100 |  |  |  |  |  |  |  |  |
| O=C(N/N=C/c1coc2ccc(Cl)cc2c1=O)c1ccncc1 | 66.9 |  | > 100 | > 100 |  | > 100 | > 100 | 32.6 | > 100 | 9.49 | 37.5 | > 100 |  | 38.8 | > 100 | > 100 | > 100 | 46.5 | 58.4 |  |
| COC(=O)CCC(=O)CC(=O)C(=O)Nc1ccc(F)cc1 | > 100 | > 100 | > 100 | > 100 |  | > 100 | > 100 |  |  |  |  | > 100 |  |  |  |  |  |  |  |  |
| N#Cc1ccc(/C=N\N2C(=O)c3ccccc3C2=O)cc1 | > 100 | > 100 | > 100 | > 100 | > 100 | > 100 | > 100 |  |  |  |  | > 100 |  |  |  |  |  |  |  |  |
| Cc1ccccc1N=Cc1ccc(N(CCC#N)S(=O)(=O)c2ccccc2)cc1 | > 100 | > 100 | > 100 | > 100 | > 100 | > 100 | > 100 |  |  |  |  | > 100 |  |  |  |  |  |  |  |  |
| C=CCCC(O)c1ccc(C(O)CCCCCCCCCCCC)o1 (centres undefined) | 27.2 |  | 34.7 | 65.5 |  | 32.8 | 41.4 | 24.2 | 55.4 | 9.29 | 17.8 | 35.3 |  | 19.3 | 27.1 | 34.3 | > 100 | 17.3 | 18.7 |  |
| COCC1C(=O)c2cc3c(cc2C12C=CC1(C=C2)OCCO1)OCO3 (centres undefined) | 11.2 | 27.4 | 26.9 | 28.1 | 6.8 | 24.6 |  |  |  |  |  | 12.6 |  |  |  |  |  |  |  |  |
| CCOc1cc(C=O)c2c(ccc3ccc(OC)c(OC)c32)c1OC | > 100 | > 100 | > 100 | > 100 |  | > 100 | > 100 |  | > 100 |  |  | > 100 |  |  |  |  | > 100 |  |  |  |
| CCOC(=O)NC(=O)c1cn(CCCCCOC(=O)NCCCCCCNC(=O)OCCCCCn2cc(C(=O)NC(=O)OCC)c(=O)[nH]c2=O)c(=O)[nH]c1=O | > 100 | > 100 |  | > 100 |  | > 100 | > 100 |  |  |  |  | > 100 |  |  |  |  |  |  |  |  |
| O=C1CSC(=S)N1c1ccc(F)cc1F |  | > 100 | > 100 | > 100 |  | > 100 | > 100 |  | > 100 |  |  | > 100 |  |  |  |  | > 100 |  |  |  |
